For data set [1], the target named is T1, OAT1 (Homo sapiens, UniProt Q4U2R8).
T1 sequence (Q4U2R8 1-563): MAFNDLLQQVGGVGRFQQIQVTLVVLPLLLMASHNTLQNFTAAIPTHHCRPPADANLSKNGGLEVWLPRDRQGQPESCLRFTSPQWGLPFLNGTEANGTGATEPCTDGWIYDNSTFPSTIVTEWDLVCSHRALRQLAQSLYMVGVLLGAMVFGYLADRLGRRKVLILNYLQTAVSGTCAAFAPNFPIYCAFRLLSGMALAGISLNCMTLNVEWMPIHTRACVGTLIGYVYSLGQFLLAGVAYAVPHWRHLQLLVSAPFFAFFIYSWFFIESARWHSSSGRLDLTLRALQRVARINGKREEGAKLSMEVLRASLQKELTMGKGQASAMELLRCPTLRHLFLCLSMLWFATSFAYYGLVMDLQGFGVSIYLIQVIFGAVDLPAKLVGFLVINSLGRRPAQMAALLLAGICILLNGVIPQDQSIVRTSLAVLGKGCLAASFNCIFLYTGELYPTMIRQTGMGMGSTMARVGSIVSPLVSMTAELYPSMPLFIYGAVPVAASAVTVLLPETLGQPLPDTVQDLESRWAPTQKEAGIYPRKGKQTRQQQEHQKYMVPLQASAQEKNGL
The data set is described as follows: OAT1 inhibition by XueBiJing compounds, transfected HEK293 cells [PAH]. The data set is classed as in vitro ADME. The note with it: for Inhibition of OAT1: 100 μmol/L; for IC50: read-out: IC50, OAT1 [PAH], mean ± SD (n = 3).

In the next data set the test system is CYP2B6. The data set can be described thus: CYP2B6 induction by XueBiJing compounds in cryopreserved human hepatocytes. Particulars: higher concentrations; range over the named compounds and enzymes. Format: in vitro ADME.
For data set [2] the following is noted: cited from earlier work; for Cmax / Major elimination route / VSS / t1/2 / fe-U (fraction of dose excreted unchanged into urine): human; for Cmax / VSS / t1/2: XueBiJing 100 mL via 75-min intravenous infusion; for fu-p (unbound fraction in plasma): human plasma.
For data set [3] the following is noted: XueBiJing compounds, cited from earlier work; for LogD(7.4): pH 7.4.
Data set [4] concerns the target T1, OAT1. Particulars: read-out: Km as OAT1 substrate; cited from earlier work.
Another data set has as its target T2, OAT2 (Homo sapiens, UniProt Q9Y694).
T2 sequence (Q9Y694 1-546 isoform Q9Y694-2): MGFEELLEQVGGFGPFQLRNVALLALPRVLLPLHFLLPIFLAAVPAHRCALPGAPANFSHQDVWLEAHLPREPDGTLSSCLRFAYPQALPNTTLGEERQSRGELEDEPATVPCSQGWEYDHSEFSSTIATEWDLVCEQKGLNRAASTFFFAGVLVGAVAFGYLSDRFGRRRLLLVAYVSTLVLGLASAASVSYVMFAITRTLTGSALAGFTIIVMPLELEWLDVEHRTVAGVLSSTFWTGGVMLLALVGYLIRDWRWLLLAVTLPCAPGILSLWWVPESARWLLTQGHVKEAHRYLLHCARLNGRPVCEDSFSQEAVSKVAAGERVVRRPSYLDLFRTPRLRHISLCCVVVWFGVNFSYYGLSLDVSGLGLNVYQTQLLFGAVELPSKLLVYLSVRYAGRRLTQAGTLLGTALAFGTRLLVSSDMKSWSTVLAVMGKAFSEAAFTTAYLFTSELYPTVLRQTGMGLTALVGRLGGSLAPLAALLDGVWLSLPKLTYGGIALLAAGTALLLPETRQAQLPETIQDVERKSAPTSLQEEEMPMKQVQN
The note with it: read-out: Km as OAT2 substrate; cited from earlier work.

The target in data set [5] is T3, OAT3 (Homo sapiens, UniProt Q8TCC7).
T3 sequence (Q8TCC7 1-542): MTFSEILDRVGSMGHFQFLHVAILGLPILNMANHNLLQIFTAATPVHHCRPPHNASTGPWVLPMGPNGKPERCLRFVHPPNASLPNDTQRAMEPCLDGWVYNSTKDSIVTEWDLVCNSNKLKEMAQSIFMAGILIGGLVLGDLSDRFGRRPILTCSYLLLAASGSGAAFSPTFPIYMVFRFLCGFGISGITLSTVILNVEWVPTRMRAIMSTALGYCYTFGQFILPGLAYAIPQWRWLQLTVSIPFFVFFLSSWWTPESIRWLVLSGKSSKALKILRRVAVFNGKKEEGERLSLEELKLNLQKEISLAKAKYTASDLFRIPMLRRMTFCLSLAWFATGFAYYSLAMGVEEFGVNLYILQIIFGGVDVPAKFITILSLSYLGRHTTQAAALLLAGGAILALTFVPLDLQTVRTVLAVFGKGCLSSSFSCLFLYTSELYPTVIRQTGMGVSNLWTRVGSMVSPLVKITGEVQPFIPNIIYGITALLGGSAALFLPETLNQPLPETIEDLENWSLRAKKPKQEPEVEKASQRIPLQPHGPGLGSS
The note with it: read-out: Km as OAT3 substrate; cited from earlier work.

The conditions of data set [6]: XueBiJing compounds; cited from earlier work.
Data set [7] is classed as in vivo. The note with it: human; XueBiJing at label dose 100 mL.
In data set [8] the test system is P450 enzymes, UGTs, SULTs, OATP1B1/1B3, OAT1/3, OCT2, MATE1/2-K, MDR1, BCRP. The note with it: cited from earlier work.
Data set [9] addresses T3, OAT3. The data set can be described thus: Reported in vitro interaction with OAT3. The data set is classed as in vitro ADME. Particulars: estimated from reported Cmax, fu-p and literature potency.
The target of data set [10] is T4, OATP1B3 (Homo sapiens, UniProt Q9NPD5).
T4 sequence (Q9NPD5 1-702): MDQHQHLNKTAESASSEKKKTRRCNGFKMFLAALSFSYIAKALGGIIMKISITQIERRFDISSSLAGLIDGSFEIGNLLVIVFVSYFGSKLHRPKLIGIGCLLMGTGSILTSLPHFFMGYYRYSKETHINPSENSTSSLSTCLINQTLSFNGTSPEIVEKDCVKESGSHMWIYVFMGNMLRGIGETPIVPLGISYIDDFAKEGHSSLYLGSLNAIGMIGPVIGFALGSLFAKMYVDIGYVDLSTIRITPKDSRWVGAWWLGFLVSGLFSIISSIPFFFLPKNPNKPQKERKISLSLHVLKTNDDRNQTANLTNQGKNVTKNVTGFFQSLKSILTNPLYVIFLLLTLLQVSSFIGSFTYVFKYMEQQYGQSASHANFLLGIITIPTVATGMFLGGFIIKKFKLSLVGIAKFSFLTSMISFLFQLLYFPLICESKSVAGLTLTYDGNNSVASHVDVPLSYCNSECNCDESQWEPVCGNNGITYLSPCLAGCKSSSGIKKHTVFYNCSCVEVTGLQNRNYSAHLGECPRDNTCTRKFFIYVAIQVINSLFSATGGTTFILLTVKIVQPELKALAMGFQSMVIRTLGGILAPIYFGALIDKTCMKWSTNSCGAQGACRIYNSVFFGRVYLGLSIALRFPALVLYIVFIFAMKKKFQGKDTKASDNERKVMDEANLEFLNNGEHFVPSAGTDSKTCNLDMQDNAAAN
The note with it: IC50, OATP1B3 [X10], mean ± SD (n = 3).

Data set [11] has as its target T4, OATP1B3. Particulars: antibiotic as perpetrator, salvianolic acid B (X10) as victim; (Cmax × fu-p × R)/IC50.
Data set [12] concerns the target T4, OATP1B3. The data set can be described thus: in vitro.
Another data set concerns CYP1A2. Particulars: hepatocytes.
Data set [13] has as its system P450 enzymes, UGTs, SULTs, OATP1B1/1B3, OAT1/3, OCT2, MATE1/2-K, MDR1, BCRP. Format: in vitro ADME, human. Particulars: data pending publication elsewhere.
In data set [14] the target is T5, CYP2C9 (Homo sapiens, UniProt P11712). The data set is described as follows: CYP2C9 inhibition by XueBiJing compounds, cDNA-expressed enzyme [MFC→HFC]. Format: in vitro ADME. The note with it: 100 μmol/L.
A further data set has as its target T6, UGT1A9 (Homo sapiens, UniProt O60656).
T6 sequence (O60656 26-530): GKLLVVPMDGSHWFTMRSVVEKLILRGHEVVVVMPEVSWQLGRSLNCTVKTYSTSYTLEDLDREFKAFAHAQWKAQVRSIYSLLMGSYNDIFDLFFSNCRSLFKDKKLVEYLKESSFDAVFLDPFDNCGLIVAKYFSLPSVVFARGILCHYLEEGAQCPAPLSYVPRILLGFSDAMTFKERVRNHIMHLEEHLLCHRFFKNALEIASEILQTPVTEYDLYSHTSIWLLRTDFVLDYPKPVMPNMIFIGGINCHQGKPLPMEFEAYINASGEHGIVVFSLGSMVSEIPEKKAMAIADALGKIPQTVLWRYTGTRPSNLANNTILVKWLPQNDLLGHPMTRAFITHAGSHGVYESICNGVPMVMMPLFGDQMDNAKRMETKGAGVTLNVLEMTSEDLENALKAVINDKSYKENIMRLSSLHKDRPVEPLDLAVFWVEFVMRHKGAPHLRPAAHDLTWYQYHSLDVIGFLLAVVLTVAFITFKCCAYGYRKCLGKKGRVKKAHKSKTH
The data set is described as follows: UGT1A9 inhibition by XueBiJing compounds, cDNA-expressed enzyme [4-MU→4-MUG]. The note with it: 100 μmol/L. Format: in vitro ADME.

For data set [15], the target named is T5, CYP2C9. Format: in vitro ADME.

Where two headings read alike, the source gives them in different places.

T5 sequence (P11712 whole entry): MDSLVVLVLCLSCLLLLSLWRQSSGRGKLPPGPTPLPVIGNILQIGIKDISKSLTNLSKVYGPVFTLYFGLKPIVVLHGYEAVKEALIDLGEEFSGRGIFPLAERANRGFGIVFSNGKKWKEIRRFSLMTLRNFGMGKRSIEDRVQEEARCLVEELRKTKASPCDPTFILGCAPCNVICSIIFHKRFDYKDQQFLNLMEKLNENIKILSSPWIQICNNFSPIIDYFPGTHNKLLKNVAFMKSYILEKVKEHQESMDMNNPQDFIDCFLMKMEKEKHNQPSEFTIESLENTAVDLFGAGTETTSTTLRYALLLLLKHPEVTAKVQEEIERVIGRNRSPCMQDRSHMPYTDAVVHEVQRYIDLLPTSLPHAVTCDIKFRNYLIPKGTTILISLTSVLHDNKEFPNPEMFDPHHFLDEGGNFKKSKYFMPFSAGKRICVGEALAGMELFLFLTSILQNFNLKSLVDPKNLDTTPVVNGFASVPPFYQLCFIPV

What is called IC50 is the concentration that inhibits the measured activity by half. In general, Cmax refers to the highest concentration seen after dosing. By pKa is commonly meant the negative logarithm of the acid dissociation constant. One may read the Km as the concentration of substrate that gives half-maximal velocity. In the case of `COc1cc(CC(O)C(=O)O)ccc1O` (centres unmarked) [X9, 3-O-methyltanshinol], on OAT1 [1], the “Inhibition of OAT1” value is listed as greater than 50% and the IC50 was 106 ± 26 µM. Also, in the data set on CYP2B6, the “mRNA-T/U ratio, CYP2B6” value was 4.0 to 9.6. In data set [2], the Cmax was 10 nM and the Major elimination route result was “Renal excretion, TS&GF-based”. The “mRNA-T/U ratio, CYP3A4” value in the data set on CYP3A4 (higher concentrations, range over the named compounds and enzymes) was in the range of 4.0 to 9.6. For the same molecule, in data set [3], the pKa is reported as 3.8 and the “LogD(7.4)” value is listed as −3.3. Moreover, the Km at OAT1 [4] is 219 µM. For the same molecule, on OAT2, the Km was 2850 µM. Besides, at OAT3 [5], the Km was 871 µM. For the same molecule, the Membrane permeability entry in data set [6] was “Good”.
With `C[C@@]12C[C@@]3(O)O[C@@H](O1)[C@]1(COC(=O)c4ccccc4)[C@H]3C[C@@]12O[C@@H]1O[C@H](CO)[C@@H](O)[C@H](O)[C@H]1O` [X2, paeoniflorin], the “Unbound Cmax” value in data set [7] worked out at 15000 nM. In addition, in data set [2], the “fu-p (unbound fraction in plasma)” value is 82%, the Cmax was 18200 nM, the VSS is reported as 0.19 L/kg and the t1/2 was 66 min. In addition, in data set [2], the Major elimination route entry is listed as “Renal excretion, GF-based” and the “fe-U (fraction of dose excreted unchanged into urine)” value is recorded as 63%. Also, the “Related metabolism and transport data (substrate status)” value (from here on “Related metabolism and transport data”) in [8] is recorded as “Not the substrate of P450 enzymes, UGTs, SULTs, OATP1B1/1B3, OAT1/3, OCT2, MATE1/2-K, MDR1, or BCRP”. Further, in [3], the pKa is 11.5 and the “LogD(7.4)” value was 0.1. Moreover, the Membrane permeability entry in data set [6] is recorded as “Poor”.
For orientation: inhibition means how much of the control response was suppressed. In the case of `Cn1nnnc1SCC1=C(C(=O)O)N2C(=O)[C@@H](NC(=O)[C@H](O)c3ccccc3)[C@H]2SC1` [A11, cefamandole], the “DDI index, inhibiting OAT3” value on OAT3 [9] is on record as no less than 1.0. Also, at OATP1B3 [10], half-maximal inhibition (IC50) was put at 53 ± 20 µM. Further, on OATP1B3 [11], the “Inhibition DDI index, OATP1B3” value is recorded as 1.70. This molecule also registered an inhibition at 1000 μmol/L at OATP1B3 [12] greater than 90%.
For the molecule `O=C(O)C(O)Cc1ccc(O)c(O)c1` (centres unmarked) [X8, tanshinol], at OAT1 [1], the “Inhibition of OAT1” value was greater than 50% and the IC50 worked out at 78 ± 14 µM. The “mRNA-T/U ratio, CYP2B6” value in the data set on CYP2B6 is on record as 4.0 to 9.6. For the same molecule, in data set [2], the “fu-p (unbound fraction in plasma)” value was 99%, the Cmax is 100 nM, the VSS was 1.13 L/kg and the t1/2 was 42 min. Besides, the “fe-U (fraction of dose excreted unchanged into urine)” value in data set [2] was 59%. Further, the “Related metabolism and transport data” value in data set [8] is given as “COMT substrate”. In addition, in the data set with CYP1A2, the “EA-T/U ratio (treated-cell/untreated-cell ratio of enzyme activity), CYP1A2” value is listed as 2.1–4.9 and the “mRNA-T/U ratio, CYP1A2” value lay in the range of 4.0 to 9.6. Besides, in the data set on CYP3A4 (hepatocytes), the “EA-T/U ratio, CYP3A4” value was 2.1–4.9 and the “mRNA-T/U ratio, CYP3A4” value is 4.0 to 9.6. Besides, in data set [3], the pKa was 3.8 and the “LogD(7.4)” value is −3.3. Moreover, the Km at OAT1 [4] was 121 µM. Further, the Km at OAT2 was 859 µM. For the same molecule, at OAT3 [5], the Km is 1890 µM.
Turning to `O=Cc1ccc(O)c(O)c1` [PCD, protocatechuic aldehyde], the “Related metabolism and transport data” value in data set [13] is “PCD is metabolized by ALDH and COMT. Impaired ALDH activity can be compensated by COMT, but could result in decreased systemic exposure to X11 ^a”.
On to `CC(=O)NC[C@H]1CN(c2ccc(N3CCOCC3)c(F)c2)C(=O)O1` [A29, linezolid], for which the “DDI index, inhibiting OAT3” value on OAT3 [9] was no less than 1.0.
For oxypaeoniflorin [X3], the “Inhibition of CYP2C9” value at CYP2C9 [14] was found to be 55%. Also, the “Inhibition of UGT1A9” value at UGT1A9 was determined as 57%. Further, on CYP2C9 [15], the “Time-dependent inhibition of CYP2C9” value is “negligible”.

The record behind these values is paper PMC6804443 (Acta Pharmaceutica Sinica. B, 2019).
